Experimental data taken from patent US20240131038A1, “ANTI-INFLAMMATORY COMPOSITIONS COMPRISING CANNABIDIOL, DELTA-9-TETRAHYDROCANNABINOL AND LINALOOL” (Cymra Life Sciences Limited, priority 2020, published 2024).
Like-named read-outs stand apart in the source and are kept apart here.

Tests used:
Format in all cases: cell-based, murine
Conditions in all cases: for IC50: Mus musculus
TNF-α release = test: TNF-α assay: TNF-α release in LPS-stimulated RAW264.7 macrophages (ELISA)
Description: (§1) Anti-inflammatory activity was determined in lipopolysaccharide (LPS) stimulated murine macrophages, RAW264.7 cells cultured in standard cell culture media (DMEM, Fetal bovine serum 5%) and incubated in the presence or absence of different test compounds/extracts and controls. The production of inflammatory mediators, including NO, cytokines TNFα and IL-6, were measured by established methods using commercial ELISA kits (Table 3). Each sample was tested with at least 6 concentrations (using 3 replicates; i.e., n=9), with relevant internal controls (Table 3). The cytotoxicity of each sample tested was determined by MTT assay.
(§2) Briefly, for the NO, TNFα and IL-6 assays the cultured RAW264.7 cells were counted and plated (0.8×10^5 cells/well) in 96 well plates and incubated for 48 hours. The medium was then aspirated and replaced with fresh medium followed by the addition of the test compounds. The compounds were incubated for 1 hour prior to the addition of the stimulant. The plates were then incubated for 18 hours and the supernatant analyzed for the inflammatory mediator of interest, the remaining cell viability was determined by MTT.
(§3) The data are presented as mean and standard error of mean (SEM). The dose response curves were fit using Graph Pad Prism. The 95% confidence intervals (CI) were calculated using the whole data set and give an estimate error in the IC50 value. The 95% CI for the IC50 where the IC50 was not reached in the testing concentrations require graphical extrapolation to calculate the IC50. Where the IC50 has been estimated by graphical extrapolation “˜” is used to indicate that it is an estimate and not experimentally determined, unless otherwise stated. The graphical extrapolation results in a wider 95% confidence interval.
(§4) The synergism combination index (CI) and isobologram IC50 weightings were calculated using Compsyn software. The dose response curve generated in GraphPad prism was transformed into 15 points representing the curve. These 15 points were then entered into the Compsyn program that generated a curve to fit the data points. This method was preferable to closely replicate the complete dose response curve in the synergy program. The Compsyn fit curve was then used for synergy calculations.
(§5) A CI value of less than 0.5 is considered highly synergistic, a CI of less than 1 indicates synergy, a CI of from 1.5 to 1 is considered additive, a CI of from 4 to 1.5 is indifferent and a CI greater than 4 is considered antagonism.

IL-6 release = test: IL-6 assay: IL-6 release in LPS-stimulated RAW264.7 macrophages (ELISA)
Description: as §1, §2, §3, §4, §5

NO release = test: Nitric oxide (NO) assay: NO release in LPS-stimulated RAW264.7 macrophages (Griess reagent)
Description: as §1, §2, §3, §4, §5

[1] = LPS-stimulated RAW264.7 cells, 18 h, Table 7, read-out: IC50 for TNF-α inhibition
[2] = LPS-stimulated RAW264.7 cells, 18 h, Table 10, read-out: IC50 for IL-6 inhibition
[3] = RAW264.7, 18 h, read-out: IC50 for NO inhibition
[4] = RAW264.7, read-out: Compusyn IC50
[5] = RAW264.7, 18 h, TNF-α inhibition, total concentration of the combination, Table 8, read-out: GraphPad IC50
[6] = RAW264.7, TNF-α inhibition, Compusyn fit curve, Table 8, read-out: Compusyn IC50
[7] = RAW264.7, 18 h, IL-6 assay, total concentration of the combination, Table 11, read-out: GraphPad IC50
[8] = RAW264.7, IL-6 assay, Compusyn fit curve, Table 11, read-out: Compusyn IC50

Which IC50 (TNF-α release; [1]) does the source give for `C[C@@H]1C[C@H]2[C@@H]3CCC4=CC(=O)C=C[C@]4(C)[C@@]3(F)[C@@H](O)C[C@]2(C)[C@@]1(O)C(=O)CO` [Dexamethasone, dexamethasone] here?
Its IC50 is 2.7 µg/mL.

What about the IC50 (IL-6 release; [2]) of the same compound?
Its IC50 is 0.016 µg/mL.

Which results are given for `C=C(C)[C@@H]1CCC(C)=C[C@H]1c1c(O)cc(CCCCC)cc1O` [CBD, cannabidiol]?
NO inhibition and synergy, result in words (NO release; LPS-stimulated RAW264.7 cells): most active compound for NO inhibition; IC50 (NO release; [3]): 1.4 µg/mL; IC50 (NO release; [4]): 1.4 µg/mL; TNF-α inhibition and synergy, result in words (TNF-α release; LPS-stimulated RAW264.7 cells): most active compound for TNF-α inhibition; IC50 (TNF-α release; [5]): 4.6 µg/mL; IC50 (TNF-α release; [6]): 4.6 µg/mL; IC50 (TNF-α release; [1]): 4.6 µg/mL; IL-6 inhibition and synergy, result in words (IL-6 release; LPS-stimulated RAW264.7 cells): most active compound for IL-6 inhibition; IC50 (IL-6 release; [7]): 1.4 µg/mL; IC50 (IL-6 release; [8]): 1.4 µg/mL; IC50 (IL-6 release; [2]): 1.4 µg/mL

For `CC(=N)NCc1cccc(CN)c1` [1400 W, N-(3-(Aminomethyl)benzyl)acetamidine], which IC50 (NO release; [3]) is on record?
Its IC50 is 1.2 µg/mL.

How did the IC50 (NO release; [3]) turn out when `C=CC(C)(O)CCC=C(C)C` (stereo not drawn) [Linalool, linalool] was run?
The IC50 was greater than 240 µg/mL.

What about the IC50 (NO release; [4]) of the same compound?
Its IC50 is greater than 240 µg/mL.

And the “Compusyn IC50” value (NO release; NO assay, Table 6)?
The value was greater than 240 µg/mL.

What about the IC50 (TNF-α release; [5]) of the same compound?
Its IC50 is greater than 240 µg/mL.

And the IC50 (TNF-α release; [6])?
The IC50 was greater than 240 µg/mL.

What about the IC50 (TNF-α release; [1]) of the same compound?
The IC50 was greater than 240 µg/mL.

And the “Compusyn IC50” value (TNF-α release; TNF-α assay, Table 9)?
The value was greater than 240 µg/mL.

What about the “Compusyn IC50” value (IL-6 release; IL-6 assay, Table 12) of the same compound?
Its value is greater than 240 µg/mL.

What about the IC50 (IL-6 release; [7]) of the same compound?
Its IC50 is greater than 240 µg/mL.

What about the IC50 (IL-6 release; [8]) of the same compound?
Its IC50 is greater than 240 µg/mL.

What about the IC50 (IL-6 release; [2]) of the same compound?
Its IC50 is greater than 240 µg/mL.

What does the source list for `CCCCCc1cc(O)c2c(c1)OC(C)(C)[C@@H]1CCC(C)=C[C@@H]21` [THC, Δ-9-tetrahydrocannabinol]?
IC50 (NO release; [3]): 6.5 µg/mL; IC50 (NO release; [4]): 6.5 µg/mL; IC50 (TNF-α release; [5]): 44 µg/mL; IC50 (TNF-α release; [6]): 45 µg/mL; IC50 (TNF-α release; [1]): 44 µg/mL; IC50 (IL-6 release; [7]): 4.2 µg/mL; IC50 (IL-6 release; [8]): 4.2 µg/mL; IC50 (IL-6 release; [2]): 4.2 µg/mL
